System: patients with metastases to the skeleton from breast or prostate cancer
Assay: Phase IA/IB trials of ^223Ra, single and repeated injection, safety and tolerance (Example 9)
Format: in vivo, humans
Method: The experiment of Example 8 was carried out with dose metering calibrated to a high accuracy. Dose levels measured at 46, 93, 163, 213, and 250 kBq/kg of ^223Ra were given as single doses and a multiple-dose schedule was also introduced.
Thirty-one patients with metastases to the skeleton, 10 from breast- and 21 from prostate cancer, all, were enrolled in phase IA and phase IB trials. The prostate cancer patients were from 60 to 85 years and had body weights ranging from 50 to 120 kg. All of them had progressive disease considered hormone refractory. The breast cancer patients were from 40 to 70 years, with bodyweight from 50 to 95 kg. All of them were progressing second hormonal and/or chemotherapy. The primary objective was to evaluate the safety and tolerance of ^223Ra.
The follow up period was 8 weeks.
In the single injection trial the following average dose levels were used; 46, 93, 163, 213, and 250-kBq kg^−1 bodyweight (b.w.). Five patients were included at each dose level. Fifteen prostate- and 10 breast cancer patients were included.
In the repeated injection schedule, 6 patients, all with prostate cancer, were included. Three patients were scheduled to receive 5 doses, each of 50 kBq kg^−1 b.w. at three-weeks intervals, and three patients to receive 2 doses, each of 125 kBq kg−1 b.w. at six-weeks intervals.
Radium-223 was produced from ^227Ac/^227Th and purified using Ac-resin to immobilize ^227Ac and ^227Th as described in WO0040275. The product concentrate, i.e., dissolved ^223RaCl2 was tested for radionuclide purity by gamma spectroscopy before further use. A concentrate of the ^223Ra in NaCl and Na Citrate was sent sterile production. Isotonicity, pH, and activity concentration were adjusted; a sample kept aside for pathogen and pyrogen testing, and the final product was filled in sterile vials that were subsequently capped with a sealed rubber membrane penetrable to syringes. The vials were put into lead containers and shipped to the hospitals.
The effect of the radium-223 on neutrophil cell fractions, platelets, white-blood-cell count and Heamoglobin were monitored to give a wide ranging measure of haematological toxicity. […] The results were expressed as the number of patients in the study showing a particular level of toxicity on the CTC Toxicity Grade scale and are set out in Table 6 below.

[1] = Multiple dosing 2 × 125 kBq/kg, n = 3
[2] = Multiple dosing 5 × 50 kBq/kg, n = 3

SMILES: [223Ra] [^223Ra, radium-223]
- Haemoglobin, CTC Grade 0: number of patients [1]: 0
- Haemoglobin, CTC Grade 1: number of patients [1]: 1
- Haemoglobin, CTC Grade 2: number of patients [1]: 2
- Neutrophile, CTC Grade 0: number of patients [1]: 3
- Neutrophile, CTC Grade 1: number of patients [1]: 0
- Neutrophile, CTC Grade 2: number of patients [1]: 0
- Neutrophile, CTC Grade 3: number of patients [1]: 0
- Platelets, CTC Grade 0: number of patients [1]: 3
- Platelets, CTC Grade 1: number of patients [1]: 0
- W B C, CTC Grade 0: number of patients [1]: 2
- W B C, CTC Grade 1: number of patients [1]: 0
- W B C, CTC Grade 2: number of patients [1]: 1
- W B C, CTC Grade 3: number of patients [1]: 0
- Haemoglobin, CTC Grade 0: number of patients [2]: 0
- Haemoglobin, CTC Grade 1: number of patients [2]: 2
- Haemoglobin, CTC Grade 2: number of patients [2]: 1
- Neutrophile, CTC Grade 0: number of patients [2]: 1
- Neutrophile, CTC Grade 1: number of patients [2]: 0
- Neutrophile, CTC Grade 2: number of patients [2]: 2
- Neutrophile, CTC Grade 3: number of patients [2]: 0
- Platelets, CTC Grade 0: number of patients [2]: 2
- Platelets, CTC Grade 1: number of patients [2]: 1
- W B C, CTC Grade 0: number of patients [2]: 1
- W B C, CTC Grade 1: number of patients [2]: 0
- W B C, CTC Grade 2: number of patients [2]: 2
- W B C, CTC Grade 3: number of patients [2]: 0
- Haemoglobin, CTC Grade 0: number of patients (Re-treatment, n = 2): 1
- Haemoglobin, CTC Grade 1: number of patients (Re-treatment, n = 2): 1
- Haemoglobin, CTC Grade 2: number of patients (Re-treatment, n = 2): 0
- Neutrophile, CTC Grade 0: number of patients (Re-treatment, n = 2): 2
- Neutrophile, CTC Grade 1: number of patients (Re-treatment, n = 2): 0
- Neutrophile, CTC Grade 2: number of patients (Re-treatment, n = 2): 0
- Neutrophile, CTC Grade 3: number of patients (Re-treatment, n = 2): 0
- Platelets, CTC Grade 0: number of patients (Re-treatment, n = 2): 2
- Platelets, CTC Grade 1: number of patients (Re-treatment, n = 2): 0
- W B C, CTC Grade 0: number of patients (Re-treatment, n = 2): 2
- W B C, CTC Grade 1: number of patients (Re-treatment, n = 2): 0
- W B C, CTC Grade 2: number of patients (Re-treatment, n = 2): 0
- W B C, CTC Grade 3: number of patients (Re-treatment, n = 2): 0
- Haemoglobin, CTC Grade 0: number of patients (Single dose 46 kBq/kg, n = 5): 4
- Haemoglobin, CTC Grade 1: number of patients (Single dose 46 kBq/kg, n = 5): 0
- Haemoglobin, CTC Grade 2: number of patients (Single dose 46 kBq/kg, n = 5): 1
- Neutrophile, CTC Grade 0: number of patients (Single dose 46 kBq/kg, n = 5): 4
- Neutrophile, CTC Grade 1: number of patients (Single dose 46 kBq/kg, n = 5): 0
- Neutrophile, CTC Grade 2: number of patients (Single dose 46 kBq/kg, n = 5): 1
- Neutrophile, CTC Grade 3: number of patients (Single dose 46 kBq/kg, n = 5): 0
- Platelets, CTC Grade 0: number of patients (Single dose 46 kBq/kg, n = 5): 5
- Platelets, CTC Grade 1: number of patients (Single dose 46 kBq/kg, n = 5): 0
- W B C, CTC Grade 0: number of patients (Single dose 46 kBq/kg, n = 5): 4
- W B C, CTC Grade 1: number of patients (Single dose 46 kBq/kg, n = 5): 0
- W B C, CTC Grade 2: number of patients (Single dose 46 kBq/kg, n = 5): 1
- W B C, CTC Grade 3: number of patients (Single dose 46 kBq/kg, n = 5): 0
- Haemoglobin, CTC Grade 0: number of patients (Single dose 93 kBq/kg, n = 5): 2
- Haemoglobin, CTC Grade 1: number of patients (Single dose 93 kBq/kg, n = 5): 2
- Haemoglobin, CTC Grade 2: number of patients (Single dose 93 kBq/kg, n = 5): 1
- Neutrophile, CTC Grade 0: number of patients (Single dose 93 kBq/kg, n = 5): 3
- Neutrophile, CTC Grade 1: number of patients (Single dose 93 kBq/kg, n = 5): 1
- Neutrophile, CTC Grade 2: number of patients (Single dose 93 kBq/kg, n = 5): 1
- Neutrophile, CTC Grade 3: number of patients (Single dose 93 kBq/kg, n = 5): 0
- Platelets, CTC Grade 0: number of patients (Single dose 93 kBq/kg, n = 5): 5
- Platelets, CTC Grade 1: number of patients (Single dose 93 kBq/kg, n = 5): 0
- W B C, CTC Grade 0: number of patients (Single dose 93 kBq/kg, n = 5): 4
- W B C, CTC Grade 1: number of patients (Single dose 93 kBq/kg, n = 5): 0
- W B C, CTC Grade 2: number of patients (Single dose 93 kBq/kg, n = 5): 1
- W B C, CTC Grade 3: number of patients (Single dose 93 kBq/kg, n = 5): 0
- Haemoglobin, CTC Grade 0: number of patients (Single dose 163 kBq/kg, n = 5): 4
- Haemoglobin, CTC Grade 1: number of patients (Single dose 163 kBq/kg, n = 5): 0
- Haemoglobin, CTC Grade 2: number of patients (Single dose 163 kBq/kg, n = 5): 1
- Neutrophile, CTC Grade 0: number of patients (Single dose 163 kBq/kg, n = 5): 3
- Neutrophile, CTC Grade 1: number of patients (Single dose 163 kBq/kg, n = 5): 0
- Neutrophile, CTC Grade 2: number of patients (Single dose 163 kBq/kg, n = 5): 1
- Neutrophile, CTC Grade 3: number of patients (Single dose 163 kBq/kg, n = 5): 1
- Platelets, CTC Grade 0: number of patients (Single dose 163 kBq/kg, n = 5): 4
- Platelets, CTC Grade 1: number of patients (Single dose 163 kBq/kg, n = 5): 1
- W B C, CTC Grade 0: number of patients (Single dose 163 kBq/kg, n = 5): 3
- W B C, CTC Grade 1: number of patients (Single dose 163 kBq/kg, n = 5): 0
- W B C, CTC Grade 2: number of patients (Single dose 163 kBq/kg, n = 5): 1
- W B C, CTC Grade 3: number of patients (Single dose 163 kBq/kg, n = 5): 1
- Haemoglobin, CTC Grade 0: number of patients (Single dose 213 kBq/kg, n = 5): 2
- Haemoglobin, CTC Grade 1: number of patients (Single dose 213 kBq/kg, n = 5): 2
- Haemoglobin, CTC Grade 2: number of patients (Single dose 213 kBq/kg, n = 5): 1
- Neutrophile, CTC Grade 0: number of patients (Single dose 213 kBq/kg, n = 5): 2
- Neutrophile, CTC Grade 1: number of patients (Single dose 213 kBq/kg, n = 5): 1
- Neutrophile, CTC Grade 2: number of patients (Single dose 213 kBq/kg, n = 5): 2
- Neutrophile, CTC Grade 3: number of patients (Single dose 213 kBq/kg, n = 5): 0
- Platelets, CTC Grade 0: number of patients (Single dose 213 kBq/kg, n = 5): 5
- Platelets, CTC Grade 1: number of patients (Single dose 213 kBq/kg, n = 5): 0
- W B C, CTC Grade 0: number of patients (Single dose 213 kBq/kg, n = 5): 2
- W B C, CTC Grade 1: number of patients (Single dose 213 kBq/kg, n = 5): 0
- W B C, CTC Grade 2: number of patients (Single dose 213 kBq/kg, n = 5): 2
- W B C, CTC Grade 3: number of patients (Single dose 213 kBq/kg, n = 5): 1
- Haemoglobin, CTC Grade 0: number of patients (Single dose 250 kBq/kg, n = 5): 2
- Haemoglobin, CTC Grade 1: number of patients (Single dose 250 kBq/kg, n = 5): 3
- Haemoglobin, CTC Grade 2: number of patients (Single dose 250 kBq/kg, n = 5): 0
- Neutrophile, CTC Grade 0: number of patients (Single dose 250 kBq/kg, n = 5): 2
- Neutrophile, CTC Grade 1: number of patients (Single dose 250 kBq/kg, n = 5): 0
- Neutrophile, CTC Grade 2: number of patients (Single dose 250 kBq/kg, n = 5): 2
- Neutrophile, CTC Grade 3: number of patients (Single dose 250 kBq/kg, n = 5): 1
- Platelets, CTC Grade 0: number of patients (Single dose 250 kBq/kg, n = 5): 2
- Platelets, CTC Grade 1: number of patients (Single dose 250 kBq/kg, n = 5): 3
- W B C, CTC Grade 0: number of patients (Single dose 250 kBq/kg, n = 5): 2
- W B C, CTC Grade 1: number of patients (Single dose 250 kBq/kg, n = 5): 0
- W B C, CTC Grade 2: number of patients (Single dose 250 kBq/kg, n = 5): 2
- W B C, CTC Grade 3: number of patients (Single dose 250 kBq/kg, n = 5): 1
- Reversible diarrhoea, grades 1 and 2, share of patients (all dose groups, total): approximately 50%
- Dose-limiting toxicity (dose escalating part, single dose 46 to 250 kBq/kg): not observed
- Thrombocytes, toxicity grade (even at the two highest dose levels): 1 grade
- Vomiting, number of patients (highest dose group): four
- Nausea, number of patients (highest dose level): four
- Neutropenia of maximum grade 3, number of patients (single injection trial): two
- Reversible myelosuppression, nadir after injection (single injection, recovery during the follow-up period): 2-3 weeks
- Additional toxicity related to the repetition of the treatment (three patients in the 50×5 schedule): did not experience any additional toxicity

Source: patent US20060228297A1, “Thorium-227 for use in radiotherapy of soft tissue disease” (priority 2003, published 2006)
